Reference: PubChem BioAssay (NCI)
Where “and” joins values, the source holds several entries; their conditions need not be identical. Equal entries are not always repeated.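 All cell lines were grown in 96-well plates and treated with compound for 48 hours. GI50 = concentration required for 50% inhibition of growth. TGI denotes the concentration required for complete inhibition of growth.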

What was measured:
Assay in all cases: NCI anticancer screen, dose series, 48 h
BT-549 breast = test system: BT-549 breast
HCC-2998 colon = test system: HCC-2998 colon
HCT-15 colon = test system: HCT-15 colon
HOP-92 NSCLC = test system: HOP-92 NSCLC
LOX IMVI melanoma = test system: LOX IMVI melanoma
OVCAR-5 ovarian = test system: OVCAR-5 ovarian
SF-268 CNS = test system: SF-268 CNS
SF-295 CNS = test system: SF-295 CNS
SNB-75 CNS = test system: SNB-75 CNS
TK-10 renal = test system: TK-10 renal

| SMILES | GI50 (BT-549 breast) | TGI (BT-549 breast) | GI50 (HCC-2998 colon) | TGI (HCC-2998 colon) | GI50 (HCT-15 colon) | TGI (HCT-15 colon) | GI50 (HOP-92 NSCLC) | TGI (HOP-92 NSCLC) | GI50 (LOX IMVI melanoma) | TGI (LOX IMVI melanoma) | GI50 (OVCAR-5 ovarian) | TGI (OVCAR-5 ovarian) | GI50 (SF-268 CNS) | TGI (SF-268 CNS) | GI50 (SF-295 CNS) | TGI (SF-295 CNS) | GI50 (SNB-75 CNS) | TGI (SNB-75 CNS) | GI50 (TK-10 renal) | TGI (TK-10 renal) |
| --- | --- | --- | --- | --- | --- | --- | --- | --- | --- | --- | --- | --- | --- | --- | --- | --- | --- | --- | --- | --- |
| COc1cc(/C=C2\CC3C4CC=C5C[C@@H](N6CCCC6)CC[C@]5(C)C4CC[C@]3(C)[C@H]2OC(C)=O)ccc1OCCN1CCCCC1 (stereo partly drawn) | 2.25 µM | 4.13 µM | 0.397 µM | 0.85 µM | 1.37 µM | 2.8 µM | 0.257 µM | 1.77 µM | 1.03 µM | 2.57 µM | 1.46 µM | 2.85 µM | 2.26 µM | 5.6 µM | 1.85 µM | 3.44 µM | 2.56 µM | 5.03 µM | 0.211 µM | 1.49 µM |
| O=C(Nc1cccc2cccnc12)c1ccc(N2C(=O)[C@@H]3[C@H](C2=O)[C@@H]2C=C[C@H]3C2)cc1 | 16.3 µM | > 83.3 µM | 35.4 µM | > 100 µM | 30.7 µM | > 100 µM | 15.5 µM | > 94.3 µM | 31.8 µM | > 100 µM | 55.9 µM | > 100 µM | 35.7 µM | > 100 µM | 24.9 µM | > 86.9 µM | > 44.2 µM | > 100 µM | 4.13 µM | > 100 µM |
| CCCCN(CCCC)CC(C)(C)C(O)c1ccc(OC)c2ccccc12 (stereo not drawn) | 12.1 µM | 30.3 µM | 3.69 µM | 12 µM | 3.88 µM | 16.5 µM | 3.11 µM | 8.81 µM | 5.53 µM | 19.4 µM | 2.4 µM | 16.4 µM | 12.6 µM | 38.3 µM | 2.28 µM | 17.8 µM | 6.31 µM | 30.3 µM | 8.02 µM | 24.3 µM |
| COc1cc(-c2nc(SCC(=O)Nc3ccc(C(C)=O)cc3)[nH]c(=O)c2C#N)cc(OC)c1OC | 32 µM | 99.7 µM | > 100 µM | > 100 µM | > 100 µM | > 100 µM | 22.6 µM | > 100 µM | 41.7 µM | > 100 µM | 85.1 µM | > 100 µM | 68.7 µM | > 100 µM | 43 µM | > 100 µM | 28.5 µM | > 100 µM | 96.9 µM | > 100 µM |
| COc1cccc(Cn2cc3c(c2)-c2oncc2CC3)c1 | 6.85 µM | > 100 µM | 0.442 µM | 7.98 µM | 0.401 µM | > 38.1 µM | 2.17 µM | 68.3 µM | 0.912 µM | > 100 µM | 0.693 µM | > 100 µM | 0.918 µM | > 100 µM | 0.245 µM | 1.04 µM | 0.211 µM | 0.895 µM | 0.803 µM | > 100 µM |
| CCCCCC(=O)OCC(=O)O[C@@H]1C[C@]2(C(C)C)O[C@@]1(C)[C@@H]1CC[C@@H](C)[C@H]1[C@@H]2OC(=O)/C=C/c1ccccc1 | 0.0923 µM | 14.4 µM | > 62.3 µM | > 100 µM | > 34.3 µM | > 70 µM | 12.8 µM | > 74.5 µM | > 49.9 µM | > 72.6 µM | > 81.7 µM | > 100 µM | 4.08 µM | > 84.7 µM | > 68.2 µM | > 100 µM | 42.4 µM | > 87.6 µM | > 51.1 µM | > 93.5 µM |
| O=C1C=CN(C2OC(CO)C(O)C2O)C(=O)C1 (stereo not drawn) |  | > 2500 µM |  | 625 µM and > 2500 µM | 54.6 µM | 625 µM and > 2500 µM | 13.6 µM and 66.2 µM |  |  | 625 µM and 788 µM |  | > 2500 µM | 172 µM and 231 µM | 625 µM and > 2500 µM | 116 µM and 59.1 µM | 625 µM and > 2060 µM |  | > 2500 µM |  | > 2500 µM |
| O=C(Nc1cccc(C(F)(F)F)c1)c1cccc(NC2=C(Cl)C(=O)N(Cc3ccccc3)C2=O)c1 | 18.8 µM | 64.2 µM | 16.8 µM | 32.7 µM | 5.1 µM | > 100 µM | 2.89 µM | 32.7 µM | 3.92 µM | 57.5 µM | > 100 µM | > 100 µM | 5.96 µM | 40.9 µM | 20.2 µM | > 100 µM | 57.3 µM | > 100 µM | 19.5 µM | > 100 µM |
| CCOC(=O)N1C/C(=C/c2ccc(OC)cc2)C(=O)/C(=C/c2ccc(OC)cc2)C1 | 2.01 µM | 4.47 µM | 1.81 µM | 3.38 µM | 1.64 µM | 4.91 µM | 4.97 µM | > 56.3 µM | 0.979 µM | 2.84 µM | 4.23 µM | 21.6 µM | 3.58 µM | > 45.1 µM | 2.17 µM | 5.81 µM | 2.93 µM | 31.1 µM | 2.91 µM | 8.58 µM |
| NC(N)=N/N=C/c1cccc(Cl)c1Cl | 13.2 µM | 28.7 µM | 1.73 µM | 3.47 µM | 3.25 µM | 11.7 µM | 1.19 µM | 5.88 µM | 2.49 µM | 8.4 µM | 12.4 µM | 26.3 µM | 11.8 µM | 25.5 µM | 2.83 µM | 10.3 µM | 11.6 µM | 26.9 µM | 11.9 µM | 24.4 µM |
| COc1ccc(NC(=O)Nc2ccc(Nc3nc(C)cc(Nc4ccc(C)cc4)n3)cc2)cc1 | 1.88 µM | 4.24 µM | 1.89 µM | 3.59 µM | 1.63 µM | 3.29 µM | 1.44 µM | 3.11 µM | 1.79 µM | 3.35 µM | 1.72 µM | 3.22 µM | 2.16 µM | 5.07 µM | 1.71 µM | 3.18 µM | 1.53 µM | 3 µM | 1.68 µM | 3.06 µM |
| O=C1NC(=O)C2(CCC(O)C2)c2cc[n+]([O-])cc21 (stereo not drawn) |  | > 100 µM |  | > 100 µM |  | > 100 µM |  | > 100 µM |  | > 100 µM |  | > 100 µM |  | > 100 µM |  | > 100 µM |  | > 100 µM |  | > 100 µM |
| BrC(Br)(Br)c1cnc2ccccc2n1 | 2.4 µM | 6.84 µM | 1.67 µM | 3.6 µM | 2.03 µM | 6.2 µM | 1.5 µM | 3.14 µM | 0.425 µM | 2.19 µM | 2.77 µM | 7.45 µM | 4 µM | 17.5 µM | 3.75 µM | 15.4 µM | 2.94 µM | 13.2 µM | 1.55 µM | 3.02 µM |
| CC(C)=CCC/C(C)=C/CC/C(=C/COP(=O)(OCc1ccc([N+](=O)[O-])o1)N(C)CCCCCl)CC=C(C)C (stereo not drawn) | 2.31 µM | 7 µM | 0.0597 µM | 2.45 µM | 2.65 µM | 12.5 µM | 16.5 µM | 36 µM | 2.92 µM | 11.5 µM | 10.6 µM | 24.3 µM | 15.1 µM | 29.9 µM | 7.14 µM | 26 µM | 12.1 µM | 36.8 µM | 14.6 µM | 30.8 µM |
| CC1CCC2C(C)C3C(CC4C5CC=C6CC(OC7OC(CO)C(O)C(OC8OC(CO)C(O)C(O)C8O)C7OC7OC(C)C(O)C(O)C7O)CCC6(C)C5CCC43C)N2C1 (stereo not drawn) | > 2.5 µg/mL | 31.9 µM and > 2.5 µg/mL | > 2.5 µg/mL | 35 µM and > 2.5 µg/mL | > 2.5 µg/mL | 33 µM and > 2.5 µg/mL | > 2.5 µg/mL | 33.6 µM and > 2.5 µg/mL | > 2.5 µg/mL | 29.7 µM and > 2.5 µg/mL | > 2.5 µg/mL | 28 µM and > 2.5 µg/mL | > 2.5 µg/mL | 34.1 µM and > 2.5 µg/mL | > 2.5 µg/mL | 22.7 µM and > 2.5 µg/mL | > 2.5 µg/mL | 24.7 µM and > 2.5 µg/mL | > 2.5 µg/mL | 30.6 µM and > 2.5 µg/mL |
| O=C(O)c1ccc(-c2ccc(C(=O)O)cc2I)c(I)c1 | > 100 µM | > 100 µM | > 100 µM | > 100 µM | > 100 µM | > 100 µM | > 100 µM | > 100 µM | > 100 µM | > 100 µM | > 100 µM | > 100 µM | > 100 µM | > 100 µM | > 100 µM | > 100 µM | > 100 µM | > 100 µM | > 100 µM | > 100 µM |
| CCCCCCCCCCCCOC1C(C(COC2OC(C(O)CN3CCCCC3)C3OC(C)(C)OC23)NC(=O)Nc2ccccc2)OC2OC(C)(C)OC21 (stereo not drawn) | 14.9 µM | 29.5 µM | 4.61 µM | 9.97 µM | 8.6 µM | 24.3 µM | 6.86 µM | 19.7 µM | 7.87 µM | 26.1 µM | 18.5 µM | 34.3 µM | 10.3 µM | 25.4 µM | 15.3 µM | 31.7 µM | 13.6 µM | 29.8 µM | 10.2 µM | 26 µM |
| O=C1/C(=C/c2ccc([N+](=O)[O-])s2)Oc2ccccc21 | 0.745 µM | 1.98 µM | 1.42 µM | 2.89 µM | 0.246 µM | 0.688 µM | 0.557 µM | 2.29 µM | 0.434 µM | 1.64 µM | 1.78 µM | 3.53 µM | 0.367 µM | 1.5 µM | 2.07 µM | 4.63 µM | 1.03 µM | 5.98 µM | 1.68 µM | 3.59 µM |
| CCn1c(-c2nonc2N)nc2c(C#CC(C)(C)O)nc(O[C@@H](CN)c3ccccc3)cc21 | 0.356 µM | 1.9 µM | 0.0478 µM | 0.858 µM | 3.1 µM | 24.1 µM | 0.0727 µM | 1.12 µM | 0.14 µM | 1.32 µM | 0.859 µM | 15.8 µM | 0.574 µM | 1.98 µM | 0.0333 µM | 1 µM | 0.122 µM | 4.06 µM | 0.164 µM | 1.66 µM |
